Test results: PubChem BioAssay (NCI)
Values joined by “and” are separate entries in the source; they are usually repeats but may differ in a detail not shown here. Identical values can stand only once.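 All cell lines were grown in 96-well plates and treated with compound for 48 hours. At the GI50, growth is halved. At the TGI there is no net growth.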 *1 amine or outer side, *2 acyl side, *3 side chain or, on linkers, in order; H or OH if unused. Where a SMILES comes first, the peptide text is derived from it. Bridges are numbered along the chain shown (N, C = ends). [ ]: non-standard residue; d: D form. The star is where a group is joined. Phe(3-Me) = Cc1cccc(C[C@H](N)C(=O)O)c1; NH(4-Cl-2-F-phenyl) = Fc1cc(Cl)ccc1N*; Pro(4R-Me) = C[C@H]1CN[C@H](C(=O)O)C1; Propanoyl(3-NMe2) = CN(C)CCC(=O)*; Hyp = O=C(O)[C@@H]1C[C@@H](O)CN1; aThr = C[C@H](O)[C@H](N)C(=O)O; Pip = O=C(O)[C@@H]1CCCCN1; CO = O=C([*:1])[*:2]

Each molecule was assayed on MDA-MB-468 breast (assay: NCI-60 cell line screen, 48 h).
With `CC[C@]12CCCN3CC[C@]4(C(=C(C(=O)OC)C1)Nc1ccccc14)[C@@H]32` the GI50 was 11.7 µM and the TGI was 28 µM. `CSc1nc2c(c(=O)[nH]1)C(c1ccc(Cl)cc1)C1=C(N2)/C(=C/c2ccc(Cl)cc2)CNC1` (configuration not stated) showed a GI50 of 1.8 µM and a TGI of 4.02 µM. With `CCc1ccc(Nc2cc(C)nc3nc(C)nn23)cc1` the GI50 was 28.6 µM and the TGI was greater than 100 µM. With `NC[C@@](O)(c1ccc(Cl)cc1)c1ccc(-c2cn[nH]c2)cc1` the GI50 was 1.08 µM and 0.54 µM and the TGI was 3.79 µM and 2.01 µM. For `COc1cc(OC)cc(-c2cncn2-c2ccc(-c3nc4cc(OC)c(OC)c(OC)c4s3)cc2)c1`, the GI50 was 10.7 µM and the TGI was greater than 100 µM. With `O=C(/C=C/c1cccnc1)c1ccccc1O` the GI50 was 15.1 µM and the TGI was 37.3 µM. Work on `COc1cc(NC(N)=NCCC(C)(C)c2ccc(C(F)(F)F)cc2)ncc1C#N` yielded a GI50 of 1.24 µM and a TGI of 2.8 µM. In the case of `Cc1cccc(C[C@H](NC(=O)Nc2ccc(Cl)cc2F)C(=O)N[C@@H]2C(=O)N3C[C@H](OC(=O)CCN(C)C)C[C@H]3C(=O)N3CCCC[C@H]3C(=O)N[C@@H](C)C(=O)N3C[C@H](C)C[C@H]3C(=O)O[C@H]2C)c1` ({NH(4-Cl-2-F-phenyl)-CO}-[Phe(3-Me)][aThr][Hyp](Propanoyl(3-NMe2))[Pip]A[Pro(4R-Me)]; ester 2-C), the GI50 was 0.255 µM and the TGI was 0.894 µM. Molecule `Cc1ccc(NC(=O)c2nc(S(C)=O)oc2-c2ccc(F)cc2)cc1Nc1nccc(-c2cccnc2)n1` (configuration not stated) has a GI50 of 2.14 µM and a TGI of 4.65 µM. `C=C1N(C)c2ccc(Cl)cc2C1(C)C` was tested, and the GI50 was 2.64 µM and the TGI was 15.6 µM. Work on `CC[C@@]1(O)C(=O)OCc2c1cc1n(c2=O)Cc2c-1nc1ccccc1c2/C=N/OC(C)(C)C` yielded a GI50 of less than 0.01 µM and a TGI of 0.0592 µM. `CCOC(=O)Nc1cccc(-n2cnc3cc(-c4ccc(O)cc4)ccc32)c1` showed a GI50 of 0.243 µM and a TGI of 10.6 µM. `COc1ccc(/C=C/C(=O)c2ccc(Nc3ccnc4cc(Cl)ccc34)cc2)cc1` showed a GI50 greater than 100 µM and a TGI greater than 100 µM. `O=S(=O)(NCCCNc1cc(-c2cn(-c3ccccc3)nc2-c2cccc(O)c2)ccn1)c1ccc(Cl)cc1` showed a GI50 of 1.16 µM and a TGI of 4.56 µM. In the case of `CC1Cc2cc(O)ccc2C2[C@@H]1C1CC[C@H](O)[C@@]1(C)C[C@@H]2O[N+](=O)[O-]` (some centres not stated), the GI50 was 27.6 µM and the TGI was greater than 100 µM. `COc1ccc(-c2nc(C(Cl)Cl)nc3cc(-c4ccccc4)nn23)cc1` gave a GI50 of 1.09 µM and a TGI of 3.1 µM. Molecule `O=C(CN1CCN(c2ccc(Cl)cc2)CC1)N1CCN(c2nnc(-c3ccccc3)c(-c3ccccc3)n2)CC1` has a GI50 of 1.83 µM and a TGI of 53.3 µM. In the case of `O=C1c2cccnc2C(=O)c2c1c(C(=O)OCCN1CCOCC1)c1ccccn21`, the GI50 was 1.51 µM and the TGI was 6.74 µM. For `CCN1CCN(C(=O)[C@]23CCC(C)(C)C[C@@H]2C2=CC[C@@H]4[C@@]5(C)C/C(=C/c6cccnc6)C(=O)C(C)(C)[C@@H]5CC[C@@]4(C)[C@]2(C)CC3)CC1`, the GI50 was 1.28 µM and the TGI was 3.94 µM. `COc1cc(C2C(C#N)=C(N)Oc3cc(O)ccc32)cc(OC)c1OC` (configuration not stated) gave a GI50 of 0.28 µM and a TGI of 1.14 µM. `CCCN1CCN(c2ccc3nc(-c4ccc5nc(-c6ccc(OCC)c(OCC)c6)[nH]c5c4)[nH]c3c2)CC1` gave a GI50 of 0.369 µM and a TGI of 1.3 µM. In the case of `CC(C)[C@@H]1CC[C@@H]2[C@@H]1[C@H](OC(=O)/C=C/c1ccccc1)[C@]1(C(C)C)C[C@@H](OC(=O)CO)[C@@]2(C)O1`, the GI50 was 6.07 µM and the TGI was 12.6 µM. `COc1cc2c3c(c4c5ccccc5[nH]c4c2c(OC)c1OC)C(=O)N(CCN1CCCCC1)C3=O` showed a GI50 of 1.6 µM and a TGI of 19.2 µM. For `COc1ccc(Nc2ncccc2C(=O)NCc2cn(Cc3cccc(Oc4ccccc4)c3)nn2)cc1`, the GI50 was 2.32 µM and the TGI was 6.95 µM. `COc1cc2c3c(n(CCCN4CCCC4)c(=O)c2cc1OC)-c1cc2c(cc1C3=O)OCO2` gave a GI50 of 1.57 µM and a TGI of 3.17 µM. For `N=c1ccn2c(n1)O[C@@H]1[C@@H](O)[C@H](CO)O[C@@H]12`, the GI50 was 48.4 µM and the TGI was greater than 100 µM. `COc1ccc(-c2nocc2-c2cc(OC)c(OC)c(OC)c2)cc1` showed a GI50 of 0.105 µM and a TGI of 18.6 µM. For `Nc1nc2c(c3cnccc13)C(c1cccc(Cl)c1)Cc1cnccc1-2` (configuration not stated), the GI50 was 0.21 µM and the TGI was 0.576 µM. Molecule `CC/C=C\C/C=C\C[C@H]1C/C=C2/C(=O)C=C[C@H]2C/C=C\CCC(=O)O1` has a GI50 of 1.86 µM and a TGI of 5 µM. Work on `C[C@]12CC[C@H]3[C@@H](C[C@@H]4N=C(c5ccc(O)cc5)S[C@@]45C[C@H](O)CC[C@]35C)[C@@H]1CC[C@@H]2O` yielded a GI50 of 5.13 µM and a TGI of 41.6 µM. `Nc1c(C(=O)Nc2ccccc2)sc2nc3c(cc12)CCCC3` showed a GI50 of 0.317 µM and a TGI of 47.9 µM. In the case of `CC(C)Oc1ccc(C(=O)N[C@H](CNC(=O)CN(C)C)Cc2ccc(-c3cn4cccc([C@H](C)O)c4n3)cc2)cc1Cl`, the GI50 was 0.0389 µM and the TGI was 17.5 µM. In the case of `O=C(O)c1cc(Sc2ccc([N+](=O)[O-])c(C(=O)O)c2)ccc1[N+](=O)[O-]`, the GI50 was greater than 100 µM and the TGI was greater than 100 µM. For `CC(=O)Nc1sc2c(c1-c1nc3ccccc3s1)CNC2`, the GI50 was 1.88 µM and the TGI was 7.24 µM. `COc1ccc(Cn2c(Br)c3c(c2-c2cc(OC)c(OC)c(OC)c2)CCc2sc(NC(C)=O)nc2-3)cc1` showed a GI50 of 4.86 µM and a TGI of 46.3 µM. With `C/C(=N\NC(=O)c1ccncc1)c1ccc(O)cc1O` the GI50 was 4.16 µM and the TGI was 50.8 µM. `O=C(CCl)Nc1ccc2c(c1)C(=O)c1ccc(NC(=O)CCl)cc1C2=O` showed a GI50 of 0.425 µM and a TGI of 1.55 µM. Work on `Cc1ccccc1/C=C1\CN(C(=O)OC(C)(C)C)C/C(=C\c2ccccc2C)C1=O` yielded a GI50 of 1.83 µM and a TGI of 4.45 µM. With `O=C(Nc1ccc(Br)cc1F)c1cc(Br)ccc1O` the GI50 was 0.873 µM and the TGI was 5.42 µM. `C[C@@]1(N2C(=O)OC[C@@H]2c2ccccc2)C(=O)N([C@H](CC(=O)N2CCC(N3CCCCC3)CC2)C(=O)NCc2cccc(C(F)(F)F)c2)[C@@H]1/C=C/c1ccccc1` showed a GI50 of 1.9 µM and a TGI of 3.77 µM. Work on `CN1CCCN(C(c2ccccc2)c2ccc(Br)cc2)CC1` (configuration not stated) yielded a GI50 of 1.93 µM and a TGI of 6.53 µM.
